# What was measured:
# CD41+/CD42+ MKs = assay: MK ploidy level by flow cytometry after addition of Blebbistatin; type: cell-based; conditions: added at day 6, 72 h
# Description: To investigate the role of myosin II in MK endomitosis, Blebbistatin was used to inhibit its […] during megakaryocytosis. Blebbistatin is added into MK culture at day 6. The ploidy level of CD41^+/CD42^+ MKs was analyzed by flow cytometry 72 h after addition of Blebbistatin.
# H2B-GFP-expressing MKs = assay: Real-time video microscopy of endomitosis in H2B-GFP-expressing MKs; type: cell-based; conditions: Blebbistatin 25 μM
# Description: To check more precisely how myosin II inhibition affects the endomitosis process, we used real-time video microscopy to monitor endomitosis in H2B-GFP-expressing MKs treated with Blebbistatin (25 μM). Endomitotic MK treated with Blebbistatin or without Blebbistatin were filmed in 3 independent experiments.
# CD41+ MK = assay: Ploidy level of CD41+ MK cultured from mouse fetal liver Lin- progenitors; type: cell-based, mice; conditions: 50 μM blebbistatin, p=0.01, n=3
# Description: Thus, the ploidy level of CD41^+ MK was analyzed directly after dissociation the fetal liver as previously described for bone marrow MK (GILLES et al, Blood, 2009). Briefly, the hematopoietic progenitors (Lineage negative, Lin-, cells) were purified from fetal liver of E13.5 by the kit MILTENYI BIOTEC and were cultivated in serum free medium with TPO and stem cell factor (SCF). Blebbistatin was added in the culture just after the purification and ploidy level of CD41^+ cells was analyzed at day 3 of culture.
# CD41+ cells (MKs) = assay: FRAP of actin-GFP turnover in the contractile ring of MKs; type: cell-based; conditions: Blebbistatin 12.5 μM
# Description: CD41^+ GFP^+ and CD41^− GFP^+ cells were sorted and the actin turnover was measured in the contractile ring at the end of cytokinesis by FRAP in the dipolar mitosis or endomitosis.
compound,measurement,setting,value
Cc1ccc2c(c1)C(=O)C1(O)CCN(c3ccccc3)C1=N2 (centres unmarked) [Blebbistatin],mean ploidy,"CD41+/CD42+ MKs; 25 μM Blebbistatin, control 6.47N, n=3, p=0.015",11.27 N
same,mean ploidy,"CD41+/CD42+ MKs; 100 μM Blebbistatin, control 6.28N, n=4, p=0.008",12.13 N
same,furrow ingression of MKs,H2B-GFP-expressing MKs,almost completely inhibited
same,metaphase-to-anaphase transition,H2B-GFP-expressing MKs,apparently normal
same,mean ploidy level,"CD41+ MK; myh9−/− mice, without 10.40",14.72
same,mean ploidy level,"CD41+ MK; wt control mice, without 10.00N",13.40 N
same,actin-GFP fluorescence recovery in the contractile ring of MKs,"CD41+ cells (MKs); control 55.7%±12.8, n=8, p=0.01",42.9%±9.0
same,t1/2 of actin-GFP fluorescence recovery,CD41+ cells (MKs); n=8,2.94 ± 1.35 s

# From patent US20130344494A1, “MYH10 AS A NEW MARKER OF PATHOLOGIES RESULTING FROM RUNX1 INACTIVATION” (priority 2011, published 2013)
